Consider 4 molecules from ChEMBL document CHEMBL1201862, “PubChem BioAssay data set” (2004).

Some test systems named below: A498; A549; ACHN; EKVX; HOP-62; K562; M14; Malme-3M; NCI-H226; NCI-H460; OVCAR-8; RXF 393; SK-MEL-28; SK-OV-3; SNB-78; SR; SW-620; TK-10; UACC-257.
Assay in all cases: DTP human tumour cell line panel, 48 h

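Where inhibition never reached the appropriate level, the endpoint shown equals the highest concentration tested. Otherwise, values were interpolated linearly from a five-concentration, 48-hour dose response in 96-well plates. GI50 marks 50% less growth.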 Activity calls are given as the source filed them. Rule as the data show it: active = GI50 up to about 1.1 µM and inactive = higher.

For the molecule `O=C(Nc1ccc(C(F)(F)F)cc1[N+](=O)[O-])C(=O)C(C(=O)c1ccc2ccccc2c1)C1OC(=O)c2ccccc21` (stereo unspecified), the GI50 with A498 is 4.09 µM (inactive); in the assay with A549, 8.51 µM (inactive); with ACHN it was 13.3 µM (inactive); in the assay with EKVX, 3.32 µM (inactive); with HOP-62 it was 5.74 µM (inactive); in the assay on K562, 5.57 µM (inactive). In addition, the GI50 with M14 is 13.6 µM (inactive); with Malme-3M it was 11.6 µM (inactive); in the assay on NCI-H226 it was 0.681 µM (active); with NCI-H460 it was 3.81 µM (inactive); in the assay with OVCAR-8, 5.07 µM (inactive); in the assay on RXF 393 it was 2.94 µM (inactive). The GI50 was 3.63 µM (inactive) with SK-MEL-28; 26.5 µM (inactive) in the assay with SK-OV-3; 10.1 µM (inactive) with SNB-78; 2.81 µM (inactive) with SR; 4.78 µM (inactive) in the assay on SW-620; 18.5 µM (inactive) in the assay with TK-10. Moreover, the GI50 in the assay on UACC-257 was 10.1 µM (inactive).

As for `FC(F)(F)c1ccc(/C=N/C23CC4CC(CC(C4)C2)C3)cc1`, the GI50 in the assay on A498, with A549, with ACHN, in the assay with EKVX, with HOP-62 and in the assay on K562 was > 100 µM (inactive) in each case. Besides, the GI50 with M14, in the assay on Malme-3M, with NCI-H226, with NCI-H460, in the assay with OVCAR-8 and with RXF 393 was > 100 µM (inactive) each time. For the same molecule, the GI50 in the assay on SK-MEL-28, with SK-OV-3, in the assay on SNB-78, in the assay on SR, with SW-620 and with TK-10 was > 100 µM (inactive) each time. For the same molecule, the GI50 in the assay with UACC-257 is > 100 µM (inactive).

In the case of `CCN1N=CSC12C(=O)N(c1ccccc1)C(=O)N2c1ccccc1` (stereo unspecified), the GI50 with A498, in the assay on A549, in the assay with ACHN, with EKVX, with HOP-62 and with K562 was > 100 µM (inactive) in each case. The GI50 in the assay with M14, in the assay with Malme-3M, in the assay on NCI-H226, in the assay on NCI-H460, in the assay on OVCAR-8 and in the assay on RXF 393 was > 100 µM (inactive) in each case. Also, the GI50 with SK-MEL-28, in the assay on SK-OV-3, in the assay on SNB-78, in the assay on SR, in the assay with SW-620 and in the assay with TK-10 was > 100 µM (inactive) each time. The GI50 with UACC-257 is > 100 µM (inactive).

As for `CC(C)(C)C1CCC(=O)C(C(O)CC2CC(=O)N(c3ccccc3)C(=O)C2)C1` (stereo unspecified), the GI50 in the assay with A498, in the assay with A549, in the assay on ACHN, in the assay with EKVX, in the assay on HOP-62 and with K562 was > 100 µM (inactive) each time. Also, the GI50 with M14, in the assay on Malme-3M, in the assay on NCI-H226, with NCI-H460, in the assay on OVCAR-8 and in the assay with RXF 393 was > 100 µM (inactive) in each case. The GI50 in the assay with SK-MEL-28 is > 100 µM (inactive); in the assay with SK-OV-3 it was > 100 µM (inactive); with SNB-78, > 100 µM (inactive); in the assay on SR it was 81.3 µM (inactive); in the assay with SW-620 it was > 100 µM (inactive); in the assay with TK-10, > 100 µM (inactive). The GI50 in the assay on UACC-257 was > 100 µM (inactive).
